Test results reported in article PMC8079033, “Design, synthesis, anticancer evaluation, and molecular modelling studies of novel tolmetin derivatives as potential VEGFR-2 inhibitors and apoptosis inducers” (Journal of Enzyme Inhibition and Medicinal Chemistry, 2021).

What was measured:
Experiment in all cases: NCI 60-cell line one-dose antiproliferative screen (SRB)
Type in all cases: cell-based
A498 = conditions: Homo sapiens, read-out: growth inhibition % (GI%)
Procedure, shortened: (§1)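 For the suspension line, settled cells were fixed with 80% TCA to a final 16%; attached lines received 50% TCA to a final 10%, 4 °C. All were treated 48 h at 10 µM, then SRB-stained.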

NCI-H522 = conditions: Homo sapiens, read-out: growth inhibition % (GI%)
Procedure, shortened: as §1

SW-620 = conditions: Homo sapiens, read-out: growth inhibition % (GI%)
Procedure, shortened: as §1

NCI-H226 = conditions: Homo sapiens, read-out: growth inhibition % (GI%)
Procedure, shortened: as §1

BT-5 = conditions: Homo sapiens, read-out: growth inhibition % (GI%)
Procedure, shortened: as §1

NCI/ADR-RES = conditions: Homo sapiens, read-out: growth inhibition % (GI%)
Procedure, shortened: as §1

MOLT-4 = conditions: Homo sapiens, read-out: growth inhibition % (GI%)
Procedure, shortened: as §1

M14 = conditions: Homo sapiens, read-out: growth inhibition % (GI%)
Procedure, shortened: as §1

SNB-19 = conditions: Homo sapiens, read-out: growth inhibition % (GI%)
Procedure, shortened: as §1

HL-60 (TB) = conditions: Homo sapiens, read-out: growth inhibition % (GI%)
Procedure, shortened: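 Sulforhodamine B assay, 515 nm: percent growth relative to untreated control and time-zero cell number after a 48 h incubation with 10 µM compound at 37 °C, reported as GI%.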

OVCAR-8 = conditions: Homo sapiens, read-out: growth inhibition % (GI%)
Procedure, shortened: as §1

PC-3 = conditions: Homo sapiens, read-out: growth inhibition % (GI%)
Procedure, shortened: as §1

OVCAR-5 = conditions: Homo sapiens, read-out: growth inhibition % (GI%)
Procedure, shortened: as §1

IGROV1 = conditions: Homo sapiens, IGROV-1, read-out: growth inhibition % (GI%)
Procedure, shortened: as §1

OVCAR-4 = conditions: Homo sapiens, read-out: growth inhibition % (GI%)
Procedure, shortened: as §1

HCT-116 = conditions: Homo sapiens, read-out: growth inhibition % (GI%)
Procedure, shortened: as §1

HOP-62 = conditions: Homo sapiens, read-out: growth inhibition % (GI%)
Procedure, shortened: as §1

SF-295 = conditions: Homo sapiens, read-out: growth inhibition % (GI%)
Procedure, shortened: as §1

EKVX = conditions: Homo sapiens, read-out: growth inhibition % (GI%)
Procedure, shortened: as §1

NCI-H322M = conditions: Homo sapiens, read-out: growth inhibition % (GI%)
Procedure, shortened: as §1

HOP-92 = conditions: Homo sapiens, read-out: growth inhibition % (GI%)
Procedure, shortened: as §1

SK-MEL-5 = conditions: Homo sapiens, read-out: growth inhibition % (GI%)
Procedure, shortened: as §1

786-0 = conditions: Homo sapiens, read-out: growth inhibition % (GI%)
Procedure, shortened: as §1

RXF 393 = conditions: Homo sapiens, read-out: growth inhibition % (GI%)
Procedure, shortened: as §1

LOX IMVI = conditions: Homo sapiens, read-out: growth inhibition % (GI%)
Procedure, shortened: as §1

NCI-H23 = conditions: Homo sapiens, read-out: growth inhibition % (GI%)
Procedure, shortened: as §1

SF-268 = conditions: Homo sapiens, read-out: growth inhibition % (GI%)
Procedure, shortened: as §1

SF-539 = conditions: Homo sapiens, read-out: growth inhibition % (GI%)
Procedure, shortened: as §1

MCF7 = conditions: Homo sapiens, read-out: growth inhibition % (GI%)
Procedure, shortened: as §1

SNB-75 = conditions: Homo sapiens, read-out: growth inhibition % (GI%)
Procedure, shortened: as §1

A549/ATCC = conditions: Homo sapiens, read-out: growth inhibition % (GI%)
Procedure, shortened: as §1

CAKI-1 = conditions: Homo sapiens, read-out: growth inhibition % (GI%)
Procedure, shortened: as §1

T-47D = conditions: Homo sapiens, T47D, read-out: growth inhibition % (GI%)
Procedure, shortened: as §1

MDA-MB-435 = conditions: Homo sapiens, read-out: growth inhibition % (GI%)
Procedure, shortened: as §1

## Cc1ccc(C(=O)c2ccc(CC(=O)NN3C(=O)CCC3=O)n2C)cc1 [Compound 7a, N-(2,5-Dioxopyrrolidin-1-yl)-2–(1-methyl-5–(4-methylbenzoyl)-1H-pyrrol-2-yl) acetamide]
A498
  inhibition at 10 µM: 14.5%
NCI-H522
  inhibition at 10 µM: 30.8%
SW-620
  inhibition at 10 µM: < 10%
NCI-H226
  inhibition at 10 µM: 22.6%
BT-5
  inhibition at 10 µM: < 10%
NCI/ADR-RES
  inhibition at 10 µM: 12.8%
MOLT-4
  inhibition at 10 µM: < 10%
M14
  inhibition at 10 µM: < 10%
SNB-19
  inhibition at 10 µM: 20%
HL-60 (TB)
  inhibition at 10 µM: < 10%
OVCAR-8
  inhibition at 10 µM: 11%
PC-3
  inhibition at 10 µM: 10%
OVCAR-5
  inhibition at 10 µM: 10.6%
IGROV1
  inhibition at 10 µM: 22.3%
OVCAR-4
  inhibition at 10 µM: 31.9%
HCT-116
  inhibition at 10 µM: 11.3%
HOP-62
  inhibition at 10 µM: 15.5%
SF-295
  inhibition at 10 µM: < 10%
EKVX
  inhibition at 10 µM: 23.9%
NCI-H322M
  inhibition at 10 µM: < 10%
HOP-92
  inhibition at 10 µM: 19.2%
SK-MEL-5
  inhibition at 10 µM: < 10%
786-0
  inhibition at 10 µM: < 10%
RXF 393
  inhibition at 10 µM: < 10%
LOX IMVI
  inhibition at 10 µM: 12.8%
NCI-H23
  inhibition at 10 µM: 24.8%
SF-268
  inhibition at 10 µM: 11.9%
SF-539
  inhibition at 10 µM: < 10%
MCF7
  inhibition at 10 µM: 14.4%
SNB-75
  inhibition at 10 µM: 40.9%
A549/ATCC
  inhibition at 10 µM: 11.1%
CAKI-1
  inhibition at 10 µM: 28.3%
T-47D
  inhibition at 10 µM: 42.8%
MDA-MB-435
  inhibition at 10 µM: < 10%
